Measured values published in PMC10892984, “Novel Antineoplastic Inducers of Mitochondrial Apoptosis in Human Cancer Cells” (Molecules, 2024).

What was measured:
T-47D = details: 48 h
[1] = Homo sapiens, 48 h, read-out: LC50

Structure (SMILES): COc1cc2c(c(OC)c1OC)-c1ccc(NNC(N)=S)c(=O)cc1C(NC(C)=O)CC2 [Compound 2, N-[(aS,7S)-10-(2-carbamothioylhydrazinyl)-1,2,3-trimethoxy-9-oxo-5,6,7,9-tetrahydrobenzo[a]heptalen-7-yl]acetamide monohydrate × ⅔ (ethyl acetate)]
- GI50 (OVCAR-3; Homo sapiens, OVCAR-3, 48 h): 0.217 µM
- TGI (OVCAR-3; OVCAR-3, ovarian cancer, mutant p53, 48 h): 0.459 µM
- GI50 (RXF 393; Homo sapiens, RXF 393, 48 h): 0.298 µM
- CC50 (RXF 393; Homo sapiens, RXF 393, 48 h, read-out: LC50): > 100 µM
- TGI (RXF 393; RXF 393, renal cancer, mutant p53, 48 h): 0.747 µM
- GI50 (NCI-H522; Homo sapiens, NCI-H522, 48 h): 0.55 µM
- CC50 (NCI-H522; Homo sapiens, NCI-H522, 48 h, read-out: LC50): > 100 µM
- TGI (NCI-H522; NCI-H522, non-small-cell lung cancer, mutant p53, 48 h): > 100 µM
- GI50 (NCI-H23; Homo sapiens, NCI-H23, 48 h): 0.438 µM
- CC50 (NCI-H23; Homo sapiens, NCI-H23, 48 h, read-out: LC50): > 100 µM
- TGI (NCI-H23; NCI-H23, non-small-cell lung cancer, mutant p53, 48 h): > 100 µM
- GI50 (SN12C; Homo sapiens, 48 h): 0.828 µM
- CC50 (SN12C; [1]): > 100 µM
- TGI (SN12C; renal cancer, mutant p53, 48 h): > 100 µM
- GI50 (T-47D; Homo sapiens, T47D): > 100 µM
- CC50 (T-47D; Homo sapiens, T47D, read-out: LC50): > 100 µM
- TGI (T-47D; T-47D, breast cancer, mutant p53): > 100 µM
- TGI (BT-549; BT-549, breast cancer, mutant p53, 48 h): 0.924 µM
- GI50 (BT-549; Homo sapiens, BT-549, 48 h): 0.294 µM
- CC50 (BT-549; Homo sapiens, BT-549, 48 h, read-out: LC50): > 100 µM
- GI50 (M14; Homo sapiens, M14, 48 h): 0.284 µM
- CC50 (M14; Homo sapiens, M14, 48 h, read-out: LC50): > 100 µM
- TGI (M14; M14, melanoma, mutant p53, 48 h): 0.735 µM
- GI50 (IGROV1; Homo sapiens, IGROV-1, 48 h): 1.18 µM
- CC50 (IGROV1; Homo sapiens, IGROV-1, 48 h, read-out: LC50): > 100 µM
- TGI (IGROV1; IGROV1, ovarian cancer, mutant p53, 48 h): > 100 µM
- CC50 (SK-MEL-28; Homo sapiens, SK-MEL-28, 48 h, read-out: LC50): > 100 µM
- TGI (SK-MEL-28; SK-MEL-28, melanoma, mutant p53, 48 h): > 100 µM
- TGI (A549; A549, non-small-cell lung cancer, wild-type p53, 48 h): > 100 µM
- GI50 (A549; Homo sapiens, A549, 48 h): 3.23 µM
- CC50 (A549; Homo sapiens, A549, 48 h, read-out: LC50): > 100 µM
- GI50 (UACC-257; Homo sapiens, UACC-257, 48 h): 0.646 µM
- CC50 (UACC-257; Homo sapiens, UACC-257, 48 h, read-out: LC50): > 100 µM
- TGI (UACC-257; UACC-257, melanoma, wild-type p53, 48 h): > 100 µM
- GI50 (KM-12; Homo sapiens, KM12, 48 h): 0.255 µM
- CC50 (KM-12; Homo sapiens, KM12, 48 h, read-out: LC50): > 100 µM
- TGI (KM-12; KM-12, colon cancer, mutant p53, 48 h): 0.801 µM
- GI50 (SK-OV-3; Homo sapiens, SK-OV-3, 48 h): 1.39 µM
- CC50 (SK-OV-3; Homo sapiens, SK-OV-3, 48 h, read-out: LC50): > 100 µM
- TGI (SK-OV-3; SK-OV-3, ovarian cancer, no p53 protein expressed, 48 h): > 100 µM
- TGI (COLO 205; COLO 205, colon cancer, mutant p53, 48 h): 0.622 µM
- GI50 (COLO 205; Homo sapiens, COLO 205, 48 h): 0.28 µM
- CC50 (COLO 205; Homo sapiens, COLO 205, 48 h, read-out: LC50): 9.13 µM
- GI50 (LOX IMVI; Homo sapiens, 48 h): 0.71 µM
- CC50 (LOX IMVI; [1]): > 100 µM
- TGI (LOX IMVI; melanoma, wild-type p53, 48 h): > 100 µM
- TGI (HOP-62; HOP-62, non-small-cell lung cancer, mutant p53, 48 h): > 100 µM
- GI50 (HOP-62; Homo sapiens, HOP-62, 48 h): 0.7 µM
- CC50 (HOP-62; Homo sapiens, HOP-62, 48 h, read-out: LC50): > 100 µM
- GI50 (SK-MEL-5; Homo sapiens, SK-MEL-5, 48 h): 0.373 µM
- CC50 (SK-MEL-5; Homo sapiens, SK-MEL-5, 48 h, read-out: LC50): > 100 µM
- TGI (SK-MEL-5; SK-MEL-5, melanoma, wild-type p53, 48 h): 4.71 µM
- GI50 (UO-31; Homo sapiens, UO-31, 48 h): > 100 µM
- CC50 (UO-31; Homo sapiens, UO-31, 48 h, read-out: LC50): > 100 µM
- TGI (UO-31; UO-31, renal cancer, wild-type p53, 48 h): > 100 µM
- GI50 (SK-MEL-2; Homo sapiens, SK-MEL-2, 48 h): > 100 µM
- CC50 (SK-MEL-2; Homo sapiens, SK-MEL-2, 48 h, read-out: LC50): > 100 µM
- TGI (SK-MEL-2; SK-MEL-2, melanoma, mutant p53, 48 h): > 100 µM
- TGI (786-0; 786-0, renal cancer, mutant p53, 48 h): > 100 µM
- GI50 (786-0; Homo sapiens, 786-0, 48 h): 0.818 µM
- CC50 (786-0; Homo sapiens, 786-0, 48 h, read-out: LC50): > 100 µM
- GI50 (OVCAR-8; Homo sapiens, OVCAR-8, 48 h): 0.97 µM
- CC50 (OVCAR-8; Homo sapiens, OVCAR-8, 48 h, read-out: LC50): > 100 µM
- TGI (OVCAR-8; OVCAR-8, ovarian cancer, mutant p53, 48 h): > 100 µM
- TGI (CAKI-1; CAKI-1, renal cancer, wild-type p53, 48 h): > 100 µM
- GI50 (CAKI-1; Homo sapiens, CAKI-1, 48 h): 7.12 µM
- CC50 (CAKI-1; Homo sapiens, CAKI-1, 48 h, read-out: LC50): > 100 µM
- GI50 (MDA-MB-468; Homo sapiens, MDA-MB-468, 48 h): 0.158 µM
- CC50 (MDA-MB-468; Homo sapiens, MDA-MB-468, 48 h, read-out: LC50): > 100 µM
- TGI (MDA-MB-468; MDA-MB-468, breast cancer, mutant p53, 48 h): 0.464 µM
- GI50 (ACHN; Homo sapiens, 48 h): 8.5 µM
- CC50 (ACHN; [1]): > 100 µM
- TGI (ACHN; renal cancer, wild-type p53, 48 h): > 100 µM
- TGI (HCC-2998; HCC-2998, colon cancer, mutant p53, 48 h): 0.674 µM
- GI50 (HCC-2998; Homo sapiens, HCC 2998, 48 h): 0.272 µM
- CC50 (HCC-2998; Homo sapiens, HCC 2998, 48 h, read-out: LC50): > 100 µM
- TGI (HCT-15; HCT-15, colon cancer, mutant p53, 48 h): > 100 µM
- GI50 (HCT-15; Homo sapiens, HCT-15, 48 h): 4.03 µM
- CC50 (HCT-15; Homo sapiens, HCT-15, 48 h, read-out: LC50): > 100 µM
- GI50 (OVCAR-5; Homo sapiens, OVCAR-5, 48 h): 9.67 µM
- CC50 (OVCAR-5; Homo sapiens, OVCAR-5, 48 h, read-out: LC50): > 100 µM
- TGI (OVCAR-5; OVCAR-5, ovarian cancer, p53 Lit. inconclusive, 48 h): > 100 µM
